# According to patent publication US6461997B1, “Triazole sulfones having herbicidal activity” (Monsanto Technology LLC, priority 1999, dated 2002):
# Key:
# SOLNI (black nightshade) = assay: Pre-emergence herbicidal activity, warm season; assay type: in vivo, Solanum nigrum; conditions: GR80 = lowest tested rate (300, 100, 30, 10 g/ha) with 80% or greater inhibition; approx. 14 days after treating; 30/21° C.
# How it was run: (§1)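 GR80 values derive from percent inhibition relative to untreated plants, read roughly 14 days after sowing and pre-emergence soil-surface treatment (compound in 50:50 acetone/water; rates typically 10, 30, 100, 300 g/ha). Warm-season weeds grew at 30/21° C day/night, cool-season ones at 18/13° C; an asterisk marks activity without reaching 80% at the highest rate.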
# POROL (common purslane) = assay: Pre-emergence herbicidal activity, warm season; assay type: in vivo, Portulaca oleracea; conditions: GR80 = lowest tested rate (300, 100, 30, 10 g/ha) with 80% or greater inhibition; approx. 14 days after treating; 30/21° C.
# How it was run: as §1
# SINAR (wild mustard) = assay: Pre-emergence herbicidal activity, cool season; assay type: in vivo, Sinapis arvensis; conditions: lowest tested rate with 80% or greater inhibition; rates 300, 100, 30, 10 g/ha; about 14 days
# How it was run: as §1
# [1] = test system: VERPE (creeping speedwell); assay: Pre-emergence herbicidal activity, cool season; assay type: in vivo, Veronica persicaria; conditions: lowest tested rate with 80% or greater inhibition; rates 300, 100, 30, 10 g/ha; about 14 days
# How it was run: as §1
# PANDI (fall panicum) = assay: Pre-plant incorporated (PPI) herbicidal activity, warm season; assay type: in vivo, Panicum dichotomiflorum; conditions: pre-plant incorporated; lowest tested rate with 80% or greater inhibition; about 14 days
# Procedure: (§2) In another set of tests, the pre-plant incorporated (PPI) activity of compounds of this invention was evaluated on the same species as for the pre-emergence tests described above. In the PPI tests the following procedure, designed to simulate PPI application, was used.
# (§3) A pre-prepared topsoil mixture (described above) was placed in a pot and compacted to a depth of 1.0 to 1.25 cm from the top of the pot. Seeds of each of several monocotyledonous and dicotyledonous annual plant species were placed on top of the soil. A sufficient quantity of soil to cover the seeds and level fill the pot was weighed into an open container. A known amount of the test compound was dissolved or suspended in an organic solvent and applied by spraying to this cover soil. The cover soil was thoroughly mixed to distribute the test compound throughout the cover soil, and was then applied as a cover layer over the seeds. Untreated soil was used as a cover layer for control pots. After treatment the plants were placed in a greenhouse where they received 0.64 cm of overhead irrigation. All subsequent watering consisted of a light overhead mist and/or subirrigation as needed for germination and growth. Tables 9 and 10 below relate to warm season plant species which were placed after pre-emergence treatment in a greenhouse with a 30/21° C. day/night temperature regime. Tables 11 and 12 below relates to cool season plant species placed after pre-emergence treatment in a greenhouse or growth chamber with an 18/13° C. day/night temperature regime. Only the compounds of Examples 1, 6, 8, 11, 13 and 15-20 were included in PPI tests.
# (§4) Approximately 14 days after planting and treating, the plants were observed and herbicidal efficacy recorded as percent inhibition by comparison with untreated plants.
# [2] = test system: LAMPU (purple deadnettle); assay: Pre-plant incorporated (PPI) herbicidal activity, cool season; assay type: in vivo, Lamium purpureum; conditions: for Percent inhibition LAMPU: weed, PPI application
# Procedure: as §2, §3, §4
# [3] = test system: AGRRE (quackgrass (seedling)); assay: as above; assay type: in vivo, Elymus repens; conditions: for Percent inhibition AGRRE: weed, PPI application
# Procedure: as §2, §3, §4
# SETVI (green foxtail) = assay: Post-emergence herbicidal activity, cool season; assay type: in vivo, Setaria viridis; conditions: abraded plants sprayed at 300, 100, 30 and 10 g/ha; about 14 days after treatment
# How it was run: (§5)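 Post-emergence foliar spray; plants abraded (garnet 200w, ~850 kPa sandblast) before application. Rates 300/100/30/10 g/ha in 50:50 acetone:water, 3,100 l/ha, 511 kPa. Greenhouse 18/13° C. day/night; % inhibition vs abraded unsprayed controls at ~14 days after treatment, GR80 derived.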
# [4] = test system: AEGCY (jointed goatgrass); assay: Post-emergence herbicidal activity, cool season; assay type: in vivo, Aegilops cylindrica; conditions: abraded plants sprayed at 300, 100, 30 and 10 g/ha; about 14 days after treatment
# How it was run: as §5
# [5] = test system: AGSST (creeping bentgrass); assay: Post-emergence herbicidal activity, cool season; assay type: in vivo, Agrostis stolonifera; conditions: abraded plants sprayed at 300, 100, 30 and 10 g/ha; about 14 days after treatment
# How it was run: as §5
# [6] = pre-plant incorporated, lowest tested rate with 80% or greater inhibition, about 14 days
smiles,measurement,setting,value
C=C(CC(F)(F)S(=O)(=O)c1ncn(C(=O)N(CC)CC)n1)C[Si](C)(C)C [Example 20],Pre-emergence activity (GR80) SOLNI,SOLNI (black nightshade),100 g/ha
same,Pre-emergence activity (GR80) POROL,POROL (common purslane),300 g/ha
same,"Pre-emergence activity GR80, SINAR",SINAR (wild mustard),[empty]
same,"Pre-emergence activity GR80, VERPE",[1],[empty]
same,"PPI activity GR80, PANDI",PANDI (fall panicum),100 g/ha
same,"PPI activity GR80, LAMPU",[2]; [6],100 g/ha
same,Percent inhibition LAMPU,[2]; 10 g/ha,90%
same,Percent inhibition LAMPU,[2]; 30 g/ha,60%
same,Percent inhibition LAMPU,[2]; 100 g/ha,80%
same,Percent inhibition LAMPU,[2]; 300 g/ha,100%
same,Percent inhibition LAMPU,[2]; 900 g/ha,95%
same,"PPI activity GR80, AGRRE",[3]; [6],300 g/ha
same,Percent inhibition AGRRE,[3]; 10 g/ha,0%
same,Percent inhibition AGRRE,[3]; 30 g/ha,10%
same,Percent inhibition AGRRE,[3]; 100 g/ha,65%
same,Percent inhibition AGRRE,[3]; 300 g/ha,40%
same,Percent inhibition AGRRE,[3]; 900 g/ha,80%
same,"Post-emergence activity GR80, SETVI",SETVI (green foxtail),[empty]
same,"Post-emergence activity GR80, AEGCY",[4],[empty]
same,"Post-emergence activity GR80, AGSST",[5],[empty]
